Results published in BindingDB's records for doi:10.1021/jm970166j (Roche Bioscience, 1997).

What was measured:
[1] = molecular target: T1, Alpha-2B adrenergic receptor (Rattus norvegicus, UniProt P19328); test: The compound's binding affinity against Alpha-2B adrenergic receptor from rat kidney homogenate in the presence of phentolamine
T1 sequence (P19328 whole entry): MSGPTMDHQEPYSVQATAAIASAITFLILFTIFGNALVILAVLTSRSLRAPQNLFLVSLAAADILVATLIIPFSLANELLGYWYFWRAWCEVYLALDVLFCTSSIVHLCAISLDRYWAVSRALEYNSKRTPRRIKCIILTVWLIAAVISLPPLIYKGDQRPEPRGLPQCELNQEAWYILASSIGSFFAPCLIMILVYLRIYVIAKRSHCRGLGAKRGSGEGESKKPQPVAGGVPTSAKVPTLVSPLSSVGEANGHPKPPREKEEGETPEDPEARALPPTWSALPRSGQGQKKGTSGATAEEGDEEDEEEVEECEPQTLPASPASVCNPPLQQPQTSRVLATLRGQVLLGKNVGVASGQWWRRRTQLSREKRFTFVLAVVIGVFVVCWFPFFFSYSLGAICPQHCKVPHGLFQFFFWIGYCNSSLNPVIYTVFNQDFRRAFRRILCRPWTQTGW

[2] = molecular target: T2, 5-hydroxytryptamine receptor 1A (Mus musculus, UniProt Q64264); test: The compound's binding affinity against 5-hydroxytryptamine 1A receptor
T2 sequence (Q64264 whole entry): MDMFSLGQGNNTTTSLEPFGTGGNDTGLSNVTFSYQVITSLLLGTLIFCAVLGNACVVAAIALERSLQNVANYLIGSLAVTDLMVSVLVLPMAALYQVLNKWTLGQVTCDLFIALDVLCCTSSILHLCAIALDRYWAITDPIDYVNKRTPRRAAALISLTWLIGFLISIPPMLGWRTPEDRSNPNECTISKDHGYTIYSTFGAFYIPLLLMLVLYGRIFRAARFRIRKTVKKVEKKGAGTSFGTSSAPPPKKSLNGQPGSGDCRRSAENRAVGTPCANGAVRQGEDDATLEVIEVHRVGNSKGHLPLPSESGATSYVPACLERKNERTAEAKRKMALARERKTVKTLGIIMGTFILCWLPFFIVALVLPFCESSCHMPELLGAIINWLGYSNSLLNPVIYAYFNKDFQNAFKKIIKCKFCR

[3] = molecular target: D(2) dopamine receptor (Homo sapiens, UniProt P14416); test: The compound's binding affinity against Dopamine receptor D2
Sequence of D(2) dopamine receptor (P14416 whole entry): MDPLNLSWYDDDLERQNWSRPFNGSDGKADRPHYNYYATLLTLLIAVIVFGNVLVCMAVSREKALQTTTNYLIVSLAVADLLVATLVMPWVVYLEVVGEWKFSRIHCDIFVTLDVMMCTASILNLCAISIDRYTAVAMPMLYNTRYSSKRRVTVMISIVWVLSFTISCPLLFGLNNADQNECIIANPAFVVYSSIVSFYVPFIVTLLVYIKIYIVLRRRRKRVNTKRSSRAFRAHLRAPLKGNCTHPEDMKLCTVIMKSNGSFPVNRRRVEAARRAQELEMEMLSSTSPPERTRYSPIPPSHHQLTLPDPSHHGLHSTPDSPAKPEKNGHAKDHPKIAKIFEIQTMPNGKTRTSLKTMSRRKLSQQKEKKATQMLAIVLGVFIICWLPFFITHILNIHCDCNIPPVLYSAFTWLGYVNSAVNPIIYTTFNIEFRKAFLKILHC

pKi [1] | pKi [2] | pKi [3] | SMILES
8.6 | 7.5 | 8.1 | Cc1nn(C)c2ncc(C(=O)N(C)C)c(NCCCN3CCN(c4ccccc4OCC(F)(F)F)CC3)c12
– | 6.5 | 6.4 | COc1cc(F)ccc1N1CCN(CCCNc2c(C(=O)N(C)C)cnc3c2c(C)nn3C)CC1
6.5 | 6.7 | 6.7 | COc1cc(F)ccc1N1CCN(CCCNc2ncccc2C(=O)N(C)C)CC1
– | 7.6 | 7.4 | COc1ccccc1N1CCN(CCCNc2ncccc2C(=O)N(C)C)CC1
